Source: ChEMBL document CHEMBL4270582, “Diterpenoid lead stevioside and its hydrolysis products steviol and isosteviol: Biological activity and structural modification” (Eur J Med Chem, 2018)
pIC50: −log10 of the molar value. Values after ≈ are worked out from the molar mass of the structure shown.

Legend:
[1] = tested on: Candida albicans; experiment: Antifungal activity against Candida albicans 855-653 by serial dilution method; assay type: functional
[2] = tested on: Staphylococcus aureus; experiment: Antibacterial activity against Staphylococcus aureus 209p by serial dilution method; assay type: functional
[3] = tested on: B16-F10; experiment: Antiproliferative activity against mouse B16F10 cells; assay type: functional, cell-based
[4] = tested on: HCT-116; experiment: Antiproliferative activity against human HCT116 cells after 72 hrs by MTT assay; assay type: functional, cell-based; settings: HCT-116, 72 h
[5] = tested on: Mycobacterium tuberculosis; experiment: Antimycobacterial activity against Mycobacterium tuberculosis H37Rv after 11 days by serial dilution method; assay type: functional; settings: 264 h
[6] = tested on: Mycobacterium avium; experiment: Antimycobacterial activity against Mycobacterium avium after 10 to 12 days by vertical diffusion method; assay type: functional
[7] = tested on: Mycobacterium tuberculosis; experiment: Antimycobacterial activity against Mycobacterium tuberculosis H37Rv after 10 to 12 days by vertical diffusion method; assay type: functional
[8] = tested on: Mycolicibacter terrae; experiment: Antimycobacterial activity against Mycobacterium terrae after 10 to 12 days by vertical diffusion method; assay type: functional
[9] = tested on: HCT-116; experiment: Antiproliferative activity against human HCT116 cells after 48 hrs by MTT assay; assay type: functional, cell-based; settings: HCT-116, 48 h
[10] = tested on: A549; experiment: Antiproliferative activity against human A549 cells after 48 hrs by MTT assay; assay type: functional, cell-based; settings: A549, 48 h
[11] = tested on: ASPC1; experiment: Antiproliferative activity against human AsPC1 cells after 48 hrs by MTT assay; assay type: functional, cell-based; settings: ASPC1, 48 h
[12] = tested on: HepG2; experiment: Antiproliferative activity against human HepG2 cells by MTT assay; assay type: functional, cell-based
[13] = tested on: SW-620; experiment: Antiproliferative activity against human SW620 cells by MTT assay; assay type: functional, cell-based
[14] = tested on: HCT-116; experiment: Antiproliferative activity against human HCT116 cells by MTT assay; assay type: functional, cell-based
[15] = tested on: Huh-7; experiment: Antiproliferative activity against human HuH7 cells by MTT assay; assay type: functional, cell-based
[16] = tested on: Bacillus subtilis; experiment: Antibacterial activity against Bacillus subtilis CMCC (B) 63501 after 6 hrs by two fold serial dilution method; assay type: functional; settings: CMCC (B) 63501, 6 h
[17] = tested on: HL-60; experiment: Antiproliferative activity against human HL60 cells after 24 hrs by MTT assay; assay type: functional, cell-based; settings: HL-60, 24 h
[18] = tested on: NCI-H460; experiment: Antiproliferative activity against human H460 cells after 24 hrs by MTT assay; assay type: functional, cell-based; settings: NCI-H460, 24 h
[19] = tested on: HepG2; experiment: Antiproliferative activity against human HepG2 cells after 24 hrs by MTT assay; assay type: functional, cell-based; settings: HepG2, 24 h
[20] = tested on: MRC5; experiment: Antiproliferative activity against human MRC5 cells after 24 hrs by MTT assay; assay type: cell-based; settings: MRC5, 24 h
[21] = tested on: Mycobacterium tuberculosis; experiment: Antimycobacterial activity against Mycobacterium tuberculosis H37Rv after 10 to 12 days by double serial dilution method; assay type: functional
[22] = tested on: AZ-521 cell line; experiment: Antiproliferative activity against human AZ-521 cells after 48 hrs by MTT assay; assay type: functional, cell-based; settings: AZ-521, 48 h
[23] = tested on: SK-BR-3; experiment: Antiproliferative activity against human SKBR3 cells after 48 hrs by MTT assay; assay type: functional, cell-based; settings: SK-BR-3, 48 h
[24] = tested on: HL-60; experiment: Antiproliferative activity against human HL60 cells after 48 hrs by MTT assay; assay type: functional, cell-based; settings: HL-60, 48 h
[25] = tested on: HepG2; experiment: Antiproliferative activity against human HepG2 cells; assay type: functional, cell-based
[26] = tested on: HeLa; experiment: Antiproliferative activity against human HeLa cells after 48 hrs by MTT assay; assay type: functional, cell-based
[27] = tested on: MCF7; experiment: Antiproliferative activity against human MCF7 cells; assay type: functional, cell-based
[28] = Inhibition of calf thymus DNA polymerase alpha using poly(dA)template/oligo(dT) (12 to 18 residues) primer and dTTP as substrate after 10 mins; design: species or system Bos taurus
[29] = tested on: MCF7; experiment: Antiproliferative activity against human MCF7 cells after 48 hrs by SRB assay; assay type: functional, cell-based; settings: MCF7, 48 h
[30] = tested on: Jejunum; experiment: Downregulation of glucose uptake in Syrian golden hamster jejunum at 1 mM after 60 mins relative to control; assay type: functional, Mesocricetus auratus
[31] = tested on: Syrian golden hamster; experiment: Induction of insulin sensitivity in Syrian golden hamster assessed as uplift of glucose uptake in insulin-resistance condition relative to control; assay type: functional, Mesocricetus auratus
[32] = tested on: Syrian golden hamster; experiment: Induction of insulin sensitivity in Syrian golden hamster assessed as uplift of glucose uptake in normal condition relative to control; assay type: functional, Mesocricetus auratus

Compound: C[C@@]12CC[C@@H]3[C@@](CC[C@H]4[C@@]3(C)CCC[C@@]4(C)C(=O)OCC[N+](C)(C)Cc3ccccc3)(CC1=O)C2.[Br-]
- MIC [1]: 31.2 µg/mL
- MIC [2]: 31.2 µg/mL

Compound: C=C1C(=O)[C@@]2(C)CC[C@@H]3[C@]1(CC[C@H]1[C@@]3(C)CCC[C@@]1(C)C(=O)NCC(=O)OCCCOc1no[n+]([O-])c1S(=O)(=O)c1ccccc1)C2
- pIC50 [3]: 7.70

Compound: CCOC(=O)[C@]1(C)CCC[C@@]2(C)[C@@H]3CC[C@@]4(C)C[C@]3(CC[C@@H]21)[C@H](Cn1cc(COc2ccccc2C=O)nn1)[C@H]4O
- pIC50 [4]: 5.53

Compound: COC(=O)[C@]1(C)CCC[C@@]2(C)[C@@H]3CC[C@@]4(C)C[C@]3(CC[C@@H]21)C/C4=N\NC(=O)c1ccccn1
- MIC [5]: 10 µg/mL (≈ 22.1 µM)

Compound: COC(=O)[C@]1(C)CCC[C@@]2(C)[C@@H]3CC[C@@]4(C)C[C@]3(CC[C@@H]21)C/C4=N\NC(=O)c1cccnc1
- MIC [5]: 10 µg/mL (≈ 22.1 µM)

Compound: C[C@@]12CC[C@@H]3[C@@](CC[C@H]4[C@@]3(C)CCC[C@@]4(C)C(=O)O[C@@H]3O[C@H](C(=O)NN)[C@@H](O)[C@H](O)[C@H]3O)(C/C1=N\N)C2
- MIC [6]: 0.7 µg/mL (≈ 1.34 µM)
- MIC [7]: 0.7 µg/mL (≈ 1.34 µM)
- MIC [8]: 0.35 µg/mL (≈ 0.67 µM)

Compound: C[C@@]12CC[C@@H]3[C@@](CC[C@H]4[C@@]3(C)CCC[C@@]4(C)C(=O)OCc3cn(CCCc4ccccc4)nn3)(CC1=O)C2
- pIC50 [9]: 5.18
- pIC50 [10]: 5.00
- pIC50 [11]: 5.32

Compound: CCOC(=O)[C@]1(C)CCC[C@@]2(C)[C@@H]3CC[C@@]4(C)C[C@]3(CC[C@@H]21)C/C4=N\OC(=O)CCC(=O)OCCOc1no[n+]([O-])c1S(=O)(=O)c1ccccc1
- pIC50 [12]: 5.53
- pIC50 [13]: 5.52
- pIC50 [14]: 6.32
- pIC50 [15]: 5.54

Compound: CCOC(=O)[C@]1(C)CCC[C@@]2(C)[C@@H]3CC[C@@]4(C)C[C@]3(CC[C@@H]21)C/C4=N\OC(=O)CCC(=O)OC(C)CCOc1no[n+]([O-])c1S(=O)(=O)c1ccccc1 (stereo partly specified)
- pIC50 [12]: 5.62
- pIC50 [13]: 5.94
- pIC50 [14]: 6.03
- pIC50 [15]: 5.76

Compound: C=C[C@]12CC[C@H]3[C@@](C)(CCC[C@@]3(C)C(=O)OCC)[C@@H]1CC[C@](C)(/C=N/O)C2
- MIC [16]: 1.56 µg/mL (≈ 4.15 µM)

Compound: C=C1C[C@@]23CC[C@H]4[C@@](C)(CCC[C@@]4(C)C(=O)NCCNC(=O)[C@]4(C)CCC[C@@]5(C)[C@@H]6CC[C@]7(O)C[C@@]6(CC[C@@H]54)CC7=C)[C@@H]2CC[C@]1(O)C3
- pIC50 [17]: 5.37
- pIC50 [18]: 4.97
- pIC50 [19]: 4.75
- pIC50 [20]: 4.77

Compound: C[C@@]12CC[C@@H]3[C@@](CC[C@H]4[C@@]3(C)CCC[C@@]4(C)C(=O)O)(C[C@H]1CC(=O)CCCCCCCCC(=O)C[C@@H]1C[C@]34CC[C@H]5[C@@H](CCC[C@H]5C(=O)O)[C@@H]3CC[C@@]1(C)C4)C2
- MIC [21]: 12.5 µg/mL (≈ 16.1 µM)

Compound: COP(=O)(OC)C(C)(C)C/C(C)=N/N=C1\C[C@]23CC[C@H]4[C@@](C)(CCC[C@@]4(C)C(=O)N/N=C(\C)CC(C)(C)P(=O)(OC)OC)[C@@H]2CC[C@@]1(C)C3
- MIC [5]: 5 µg/mL (≈ 6.88 µM)

Compound: C=C1C[C@@]23CC[C@H]4[C@@H](CCC[C@@]4(C)COC(=O)/C=C/C(F)(F)F)[C@@H]2CC[C@]1(O)C3
- pIC50 [22]: 5.77
- pIC50 [23]: 5.92
- pIC50 [10]: 5.39
- pIC50 [24]: 5.54

Compound: CCCCCCCC(=O)CO[C@]1(C)CCC[C@@]2(C)[C@@H]3CC[C@@]4(C)C[C@]3(CC[C@@H]21)CC4=O
- pIC50 [25]: 5.70

Compound: C[C@@]12CC[C@@H]3[C@@](CC[C@H]4[C@@]3(C)CCC[C@@]4(C)C(=O)NNC(=O)CCCCC(=O)NNC(=O)[C@]3(C)CCC[C@H]4[C@@H]5CC[C@@]6(C)C[C@]5(CC[C@@H]43)CC6=O)(CC1=O)C2
- MIC [5]: 5 µg/mL (≈ 6.57 µM)

Compound: C[C@@]12CC[C@@H]3[C@@](CC[C@H]4[C@@]3(C)CCC[C@@]4(C)C(=O)OCc3cn(-c4ccccc4)nn3)(CC1=O)C2
- pIC50 [26]: 5.23

Compound: C[C@@]12CC[C@@H]3[C@@](CC[C@H]4[C@@]3(C)CCC[C@@]4(C)C(=O)NCCNC(=O)[C@]3(C)CCC[C@@]4(C)[C@@H]5CC[C@@]6(C)C[C@]5(CC[C@@H]43)CC6=O)(CC1=O)C2
- pIC50 [17]: 5.32
- pIC50 [18]: 4.85
- pIC50 [19]: 4.76
- pIC50 [20]: 4.65

Compound: NNC(=O)c1ccncc1 [ISONIAZID]
- MIC [5]: 0.5 µg/mL (≈ 3.65 µM)

Compound: C[C@@]12CC[C@@H]3[C@@](CC[C@H]4[C@@]3(C)CCC[C@@]4(C)C(=O)O)(CC1=O)C2 [ISOSTEVIOL]
- IC50 [27]: 2.18 µg/mL (≈ 6.85 µM)
- pIC50 [28]: 4.19

Compound: C=C1C[C@@]23CC[C@H]4[C@@](C)(CCC[C@@]4(C)C(=O)O)[C@@H]2CC[C@]1(O)C3 [STEVIOL]
- pIC50 [29]: 3.73

Compound: C=C1C[C@@]23CC[C@H]4[C@@](C)(CCC[C@@]4(C)C(=O)O[C@@H]4O[C@H](CO)[C@@H](O)[C@H](O)[C@H]4O)[C@@H]2CC[C@]1(O[C@@H]1O[C@H](CO)[C@@H](O)[C@H](O)[C@H]1O[C@@H]1O[C@H](CO)[C@@H](O)[C@H](O)[C@H]1O)C3 [STEVIOSIDE]
- Activity [30]: 43%
- fold change (FC) [31]: 4.4
- fold change (FC) [32]: 2.1

Compound: CCN(CC)CCNC(=O)c1c(C)[nH]c(/C=C2\C(=O)Nc3ccc(F)cc32)c1C [SUNITINIB]
- pIC50 [12]: 5.11
